Key:
Assay in all cases: relative viability (nuclei count vs DMSO), 5 days (fraction); higher = more cells survive
[1] = compound: C1=CC2=C(C=C(C(=C2N=C1)O)N=NC3=CC4=C(C=C3)C=C(C=C4)S(=O)(=O)O)S(=O)(=O)O + COc1cccc2cc(-c3nc([C@H]4CC[C@H](C(=O)O)CC4)n4ncnc(N)c34)[nH]c12 [OSI-027] (partner 0.5 µM)
Summary of the method: (§1)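 Relative viability divides the nuclei count in treated wells by that in vehicle wells. Lung cancer cell lines were seeded in 1536-well plates, dosed by pin tool the next day, and fixed and stained after 5 days in one step with final 0.05% Triton X-100, 1% formaldehyde and 1 ug/ml Hoechst. Dosing was a single drug or a fixed anchor-drug dose plus five library-drug doses (not always all listed) in √10 steps, and values are medians of duplicate plates imaged at 4×.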

[2] = compound: C1=CC2=C(C=C(C(=C2N=C1)O)N=NC3=CC4=C(C=C3)C=C(C=C4)S(=O)(=O)O)S(=O)(=O)O + O=C(CCCCCCC(=O)Nc1ccccc1)NO [Vorinostat] (partner 1 µM)
Summary of the method: as §1

AT-7519 + Navitoclax = compound: O=C(NC1CCNCC1)c1n[nH]cc1NC(=O)c1c(Cl)cccc1Cl [AT-7519] + CC1(C)CCC(c2ccc(Cl)cc2)=C(CN2CCN(c3ccc(C(=O)NS(=O)(=O)c4ccc(N[C@H](CCN5CCOCC5)CSc5ccccc5)c(S(=O)(=O)C(F)(F)F)c4)cc3)CC2)C1 [Navitoclax] (partner 0.5 µM)
Summary of the method: as §1

AT-7519 + Linsitinib = compound: O=C(NC1CCNCC1)c1n[nH]cc1NC(=O)c1c(Cl)cccc1Cl [AT-7519] + C[C@]1(O)C[C@@H](c2nc(-c3ccc4ccc(-c5ccccc5)nc4c3)c3c(N)nccn32)C1 [Linsitinib] (partner 1 µM)
Summary of the method: as §1

Cell Line	relative viability ([1]; first compound 0.08 µM)	relative viability ([1]; first compound 0.253 µM)	relative viability ([1]; first compound 0.8 µM)	relative viability ([1]; first compound 2.53 µM)	relative viability ([1]; first compound 8 µM)	relative viability ([2]; first compound 0.08 µM)	relative viability ([2]; first compound 0.253 µM)	relative viability ([2]; first compound 0.8 µM)	relative viability ([2]; first compound 2.53 µM)	relative viability ([2]; first compound 8 µM)	relative viability (AT-7519 + Navitoclax; first compound 0.01 µM)	relative viability (AT-7519 + Navitoclax; first compound 0.03162 µM)	relative viability (AT-7519 + Navitoclax; first compound 0.3162 µM)	relative viability (AT-7519 + Navitoclax; first compound 1 µM)	relative viability (AT-7519 + Linsitinib; first compound 0.01 µM)	relative viability (AT-7519 + Linsitinib; first compound 0.03162 µM)	relative viability (AT-7519 + Linsitinib; first compound 0.3162 µM)	relative viability (AT-7519 + Linsitinib; first compound 1 µM)
SK-MES-1	0.69	0.633	0.588	0.681	0.661	1.16	1.12	0.985	1.06	1.17	1.18	1.08	1.25	1.15	1.08	0.958	1.08	0.953
SW 1573	0.734	0.622	0.61	0.463	0.401	0.92	0.915	0.531	0.828	0.519	0.921	0.873	0.704	0.224	0.762	0.664	0.739	0.398

Reference: the supplement of paper PMC10307832
